For the experiment, the system named is soybean. Description: Farmland test on soybean (germination, height, fresh weight, dry weight). It counts as in vivo. The conditions noted are these: relative to the negative control (pure water). Here is the method: BR1, BR2, BR3, BR4, BR5 and BR6 were mixed into a mixture of brassinolide analogues (referred to as “BRs”, in which the weight ratio of BR1:BR2:BR3:BR4:BR5:BR6 is 0.4:0.4:0.4:0.4:0.4:98). pure water was used as a negative control, while chemically synthesized homobrassinolide (purchased from Yunda Technology Co., Ltd.) was used as a positive control. Respectively BRs and the positive control were diluted to the concentrations of 1 ppm, 0.5 ppm, 0.1 ppm, 0.05 ppm, 0.01 ppm, 0.005 ppm, 0.001 ppm, 0.0005 ppm and 0.0001 ppm. The subjects for the experimentation are soybean seeds in an experimental farmland. We sowed the soybean seeds on 9th July, surveyed the germination on 22nd July, 23rd July and 24th July, and measured the height on 5th September […].

The structures appear in SMILES notation.

Data on 1 molecule can be found in patent US9326506B2, “Preparation method, agricultural composition and applications of natural brassinolide analogs” (CHENGDU NEWSUN CROPSCIENCE CO., LTD, priority 2012, dated 2016).

Consider `CC[C@@H](C(C)C)[C@H](O)[C@@H](O)[C@@H](C)[C@H]1CC[C@H]2[C@@H]3COC(=O)[C@H]4C[C@H](O)[C@H](O)C[C@]4(C)[C@H]3CC[C@]12C` [homobrassinolide], for which the “Effects on germination, height, fresh weight and dry weight of soybean” value is “positive and different effects”.
